In publication PMC6804997 (PLoS ONE, 2019):

What was measured:
Assay in all cases: HDAC enzyme inhibition assay (Ac-peptide-AMC substrate)
Format in all cases: biochemical
HDAC4 = HDAC4 (Homo sapiens, UniProt P56524); conditions: HDAC4 vs HDAC6
Protocol: (§1) HDACs inhibition assay of F7 was performed utilizing 4-amino-7-methylcoumarin (AMC) labeled Ac-peptide (Ac-peptide-AMC) substrates, a service provided by Chempartner Company (Shanghai, China).
(§2) This assay was performed was performed utilizing 4-amino-7-methylcoumarin (AMC) labeled Ac-peptide (Ac-peptide-AMC) substrates, a service provided by Chempartner Company (Shanghai, China).

HDAC7 = target: T1, HDAC7 (Homo sapiens, UniProt Q8WUI4); conditions: HDAC7 vs HDAC6
T1 sequence (Q8WUI4 1-952): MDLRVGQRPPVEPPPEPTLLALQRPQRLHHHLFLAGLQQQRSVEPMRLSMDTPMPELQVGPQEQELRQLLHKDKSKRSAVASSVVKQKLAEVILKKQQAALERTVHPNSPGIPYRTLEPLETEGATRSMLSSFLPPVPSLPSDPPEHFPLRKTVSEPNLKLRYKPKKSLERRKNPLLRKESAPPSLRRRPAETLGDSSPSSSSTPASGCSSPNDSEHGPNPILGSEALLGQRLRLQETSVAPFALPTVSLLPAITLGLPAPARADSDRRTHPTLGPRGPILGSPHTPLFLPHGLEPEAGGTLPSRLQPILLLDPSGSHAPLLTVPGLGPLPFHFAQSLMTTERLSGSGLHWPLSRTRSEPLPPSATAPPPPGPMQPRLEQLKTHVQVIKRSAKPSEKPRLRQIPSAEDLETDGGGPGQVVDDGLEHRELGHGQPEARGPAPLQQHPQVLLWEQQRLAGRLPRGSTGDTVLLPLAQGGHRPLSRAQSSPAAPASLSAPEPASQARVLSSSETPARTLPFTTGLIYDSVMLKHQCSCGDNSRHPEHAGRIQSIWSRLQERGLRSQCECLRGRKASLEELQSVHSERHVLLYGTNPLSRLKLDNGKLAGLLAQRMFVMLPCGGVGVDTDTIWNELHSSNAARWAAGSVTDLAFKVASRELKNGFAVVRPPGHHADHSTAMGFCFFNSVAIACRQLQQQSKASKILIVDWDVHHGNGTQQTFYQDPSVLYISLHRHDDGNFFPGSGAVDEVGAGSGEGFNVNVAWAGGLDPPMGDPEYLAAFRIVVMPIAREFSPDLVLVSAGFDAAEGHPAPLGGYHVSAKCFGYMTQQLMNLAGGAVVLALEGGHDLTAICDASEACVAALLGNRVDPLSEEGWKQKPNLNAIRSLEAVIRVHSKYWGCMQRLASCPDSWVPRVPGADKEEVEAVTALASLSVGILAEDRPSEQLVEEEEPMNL
Protocol: as §1, §2

HDAC9 = HDAC9 (Homo sapiens, UniProt Q9UKV0); conditions: HDAC9 vs HDAC6
Protocol: as §1, §2

HDAC5 = HDAC5 (Homo sapiens, UniProt Q9UQL6); conditions: HDAC5 vs HDAC6
Protocol: as §1, §2

HDAC11 = target: T2, HDAC11 (Homo sapiens, UniProt Q96DB2); conditions: HDAC11 vs HDAC6
T2 sequence (Q96DB2 1-347): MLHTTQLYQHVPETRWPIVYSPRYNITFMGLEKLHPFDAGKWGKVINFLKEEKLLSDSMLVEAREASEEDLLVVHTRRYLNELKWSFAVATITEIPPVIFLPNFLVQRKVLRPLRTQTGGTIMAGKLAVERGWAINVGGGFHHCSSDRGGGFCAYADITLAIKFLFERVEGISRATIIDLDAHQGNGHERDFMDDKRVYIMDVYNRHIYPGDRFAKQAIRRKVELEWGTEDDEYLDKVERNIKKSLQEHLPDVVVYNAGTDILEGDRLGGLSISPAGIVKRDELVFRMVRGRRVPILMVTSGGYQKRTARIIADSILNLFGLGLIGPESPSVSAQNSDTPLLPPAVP
Protocol: as §1, §2

Chain of HDAC5 (Q9UQL6 whole entry, species assumed): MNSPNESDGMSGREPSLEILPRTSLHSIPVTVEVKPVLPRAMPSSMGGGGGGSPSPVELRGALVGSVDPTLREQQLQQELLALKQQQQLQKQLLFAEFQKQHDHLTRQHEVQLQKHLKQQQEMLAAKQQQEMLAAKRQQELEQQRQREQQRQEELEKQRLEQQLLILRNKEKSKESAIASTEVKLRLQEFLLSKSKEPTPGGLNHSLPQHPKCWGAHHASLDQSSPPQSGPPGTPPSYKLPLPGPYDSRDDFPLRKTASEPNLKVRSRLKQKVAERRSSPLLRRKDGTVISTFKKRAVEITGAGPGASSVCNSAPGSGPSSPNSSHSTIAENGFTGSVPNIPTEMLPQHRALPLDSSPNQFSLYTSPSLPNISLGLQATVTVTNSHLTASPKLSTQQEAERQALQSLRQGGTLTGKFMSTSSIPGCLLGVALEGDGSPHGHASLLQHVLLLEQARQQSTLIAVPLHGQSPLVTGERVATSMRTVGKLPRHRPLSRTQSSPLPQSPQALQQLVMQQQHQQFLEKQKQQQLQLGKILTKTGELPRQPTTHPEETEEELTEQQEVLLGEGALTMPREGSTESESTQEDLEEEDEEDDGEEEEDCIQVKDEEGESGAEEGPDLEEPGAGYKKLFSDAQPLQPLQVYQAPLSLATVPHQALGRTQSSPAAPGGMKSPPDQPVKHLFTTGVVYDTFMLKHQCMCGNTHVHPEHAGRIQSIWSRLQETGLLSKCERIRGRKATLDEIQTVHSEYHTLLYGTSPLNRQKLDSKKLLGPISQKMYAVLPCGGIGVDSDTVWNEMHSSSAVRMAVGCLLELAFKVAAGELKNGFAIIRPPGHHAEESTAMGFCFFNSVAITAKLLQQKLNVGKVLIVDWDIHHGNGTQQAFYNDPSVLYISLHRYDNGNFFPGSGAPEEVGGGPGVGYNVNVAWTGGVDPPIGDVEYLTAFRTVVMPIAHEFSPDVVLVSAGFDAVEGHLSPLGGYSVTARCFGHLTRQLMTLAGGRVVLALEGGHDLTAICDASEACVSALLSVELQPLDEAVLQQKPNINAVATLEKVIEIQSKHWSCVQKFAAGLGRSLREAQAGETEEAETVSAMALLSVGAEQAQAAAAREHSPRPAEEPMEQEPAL
Chain of HDAC9 (Q9UKV0 whole entry, species assumed): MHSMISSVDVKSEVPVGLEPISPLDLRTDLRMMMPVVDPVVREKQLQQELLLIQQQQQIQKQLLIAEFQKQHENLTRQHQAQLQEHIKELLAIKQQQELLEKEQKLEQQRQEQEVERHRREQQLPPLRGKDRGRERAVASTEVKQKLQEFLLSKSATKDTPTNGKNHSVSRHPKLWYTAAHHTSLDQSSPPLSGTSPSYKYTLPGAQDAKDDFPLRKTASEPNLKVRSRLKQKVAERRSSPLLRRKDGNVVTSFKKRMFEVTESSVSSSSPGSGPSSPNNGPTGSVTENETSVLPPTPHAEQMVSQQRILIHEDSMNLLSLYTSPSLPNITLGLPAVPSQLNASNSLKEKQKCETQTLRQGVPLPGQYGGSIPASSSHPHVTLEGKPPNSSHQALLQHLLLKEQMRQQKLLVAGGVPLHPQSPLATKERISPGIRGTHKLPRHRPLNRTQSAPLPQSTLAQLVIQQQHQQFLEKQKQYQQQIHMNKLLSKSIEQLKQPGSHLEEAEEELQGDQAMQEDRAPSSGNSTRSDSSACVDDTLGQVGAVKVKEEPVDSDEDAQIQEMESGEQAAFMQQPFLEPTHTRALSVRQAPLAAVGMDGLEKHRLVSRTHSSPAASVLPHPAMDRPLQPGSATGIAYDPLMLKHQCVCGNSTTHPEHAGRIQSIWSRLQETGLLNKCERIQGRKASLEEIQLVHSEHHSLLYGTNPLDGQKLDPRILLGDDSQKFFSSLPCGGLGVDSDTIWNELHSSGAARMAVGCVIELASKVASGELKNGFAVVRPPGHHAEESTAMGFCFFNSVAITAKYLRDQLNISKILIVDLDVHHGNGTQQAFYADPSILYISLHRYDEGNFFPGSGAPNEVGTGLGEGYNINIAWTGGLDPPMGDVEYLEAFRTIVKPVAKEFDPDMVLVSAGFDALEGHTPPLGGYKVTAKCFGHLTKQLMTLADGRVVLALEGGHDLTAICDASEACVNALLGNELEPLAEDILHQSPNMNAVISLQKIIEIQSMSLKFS
Chain of HDAC4 (P56524 whole entry, species assumed): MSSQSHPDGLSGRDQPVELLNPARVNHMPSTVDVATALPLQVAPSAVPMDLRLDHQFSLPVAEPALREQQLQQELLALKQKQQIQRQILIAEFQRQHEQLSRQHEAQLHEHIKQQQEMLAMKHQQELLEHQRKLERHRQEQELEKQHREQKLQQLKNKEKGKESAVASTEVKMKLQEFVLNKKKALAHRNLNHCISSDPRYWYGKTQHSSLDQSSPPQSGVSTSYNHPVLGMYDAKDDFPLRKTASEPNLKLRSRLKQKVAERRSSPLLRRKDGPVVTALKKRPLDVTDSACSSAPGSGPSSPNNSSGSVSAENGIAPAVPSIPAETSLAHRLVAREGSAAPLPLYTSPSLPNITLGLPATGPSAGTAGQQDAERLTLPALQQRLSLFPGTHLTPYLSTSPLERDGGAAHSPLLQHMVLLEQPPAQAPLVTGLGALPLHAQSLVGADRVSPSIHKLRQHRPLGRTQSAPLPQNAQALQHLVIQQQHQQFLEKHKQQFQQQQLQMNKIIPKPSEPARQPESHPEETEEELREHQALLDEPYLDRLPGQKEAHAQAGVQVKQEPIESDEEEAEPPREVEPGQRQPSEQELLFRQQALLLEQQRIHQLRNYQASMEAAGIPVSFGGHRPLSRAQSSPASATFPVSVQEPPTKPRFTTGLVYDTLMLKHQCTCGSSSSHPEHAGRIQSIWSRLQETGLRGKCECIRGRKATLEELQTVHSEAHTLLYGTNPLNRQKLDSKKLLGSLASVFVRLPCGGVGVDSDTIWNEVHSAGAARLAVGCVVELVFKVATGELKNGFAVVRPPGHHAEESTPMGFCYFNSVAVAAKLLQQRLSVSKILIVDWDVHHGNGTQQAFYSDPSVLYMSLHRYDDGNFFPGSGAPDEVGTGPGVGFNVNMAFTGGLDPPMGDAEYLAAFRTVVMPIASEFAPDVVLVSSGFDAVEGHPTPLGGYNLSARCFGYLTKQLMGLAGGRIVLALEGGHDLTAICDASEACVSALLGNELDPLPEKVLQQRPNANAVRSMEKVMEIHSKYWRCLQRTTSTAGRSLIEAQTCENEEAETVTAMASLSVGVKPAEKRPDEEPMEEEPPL

COc1ccc(N(C)c2nc(C)nc3ccccc23)cc1OCCCC(=O)NO [23BB, N-hydroxy-4-(2-methoxy-5-(methyl(2-methylquinazolin-4-yl)-amino)phenoxy)butanamide]
> 588.235: Selective Ratio HDAC4 (HDAC4) | Selective Ratio HDAC7 (HDAC7) | Selective Ratio HDAC9 (HDAC9) | Selective Ratio HDAC5 (HDAC5) | Selective Ratio HDAC11 (HDAC11)
